This note sets out measurements from US20250034113A1, “SOLID STATE FORMS OF TAVAPADON AND PROCESSES FOR PREPARATION THEREOF” (TEVA CZECH INDUSTRIES S.R.O, priority 2021, published 2025).

The data set can be described thus: Stability test of crystalline forms at different relative humidities and temperatures, XRPD analysis. The format is physicochemical. The conditions noted are these: for time stable after exposure to different relative humidity conditions at different temperatures: 25° C./60% RH and 40° C./75% RH, by XRPD; for XRPD analysis after storage: 2 month; for stability to conditions of relative humidity at elevated temperatures: general statement. The method, then: Powder X-ray Diffraction was performed on an X-Ray powder diffractometer PanAlytical X'pert Pro; CuKα radiation (λ=1.54187 Å); X'Celerator detector with active length 2.122 degrees 2-theta; laboratory temperature 25±3° C.; zero background sample holders. Prior to analysis, the samples were gently ground using a mortar and pestle to obtain a fine powder. The ground sample was adjusted into a cavity of the sample holder and the surface of the sample was smoothed using a cover glass.
• Scan range: 3-40 degrees 2-theta • Scan mode: continuous • Step size: 0.0167 degrees • […] s • Sample spin: 60 rpm • Sample holder: zero background silicon plate
Samples of Tavapadon form 1 and Form H1 were subjected to conditions of different relative humidities at different temperatures. XRPD analysis was performed on the samples after 2 month.
Samples of Tavapadon Form H1 were subjected to conditions of different relative humidities at different temperatures, over a time period of 6 months. XRPD analysis was performed on the samples after 2, 4 and 6 months.
Samples of Tavapadon Form R1 were subjected to conditions of different relative humidities at different temperatures, over a time period of 6 months. XRPD analysis was performed on the samples after 2, 4 and 6 months.

As for `Cc1cc(Oc2ncccc2C(F)(F)F)ccc1-c1c(C)c(=O)[nH]c(=O)n1C` (racemic) [Tavapadon Form R1, 1,5-dimethyl-6-(2-methyl-4-{[3-(trifluoromethyl)pyridin-2-yl]oxy}phenyl)pyrimidine-2,4(1H,3H)-dione], the “time stable after exposure to different relative humidity conditions at different temperatures” value is given as “at least 6 months”. Further, the “XRPD result (crystalline form)” value (0 M (start)) is recorded as “Form R1”. Where the note is “25° C./60% RH, 2 M”, the “XRPD result (crystalline form)” value is on record as “Form R1”. Moreover, the “XRPD result (crystalline form)” value (25° C./60% RH, 4 M) is on record as “Form R1”. Also, where the note is “25° C./60% RH, 6 M”, the “XRPD result (crystalline form)” value is “Form R1”. Where the note is “40° C./75% RH, 2 M”, the “XRPD result (crystalline form)” value is listed as “Form R1”. In addition, the “XRPD result (crystalline form)” value (40° C./75% RH, 4 M) is “Form R1”. Besides, the “XRPD result (crystalline form)” value (40° C./75% RH, 6 M) is listed as “Form R1”.
As for `Cc1cc(Oc2ncccc2C(F)(F)F)ccc1-c1c(C)c(=O)[nH]c(=O)n1C` (single isomer, unassigned) [Tavapadon Form 1, 1,5-dimethyl-6-(2-methyl-4-{[3-(trifluoromethyl)pyridin-2-yl]oxy}phenyl)pyrimidine-2,4(1H,3H)-dione], the “stability to conditions of relative humidity at elevated temperatures” value was “particularly stable”. Also, the “XRPD analysis after storage” value (25° C., 60% RH) was “No change”. For the same molecule, under “40° C., 75% RH”, the “XRPD analysis after storage” value is on record as “No change”.
In the case of `Cc1cc(Oc2ncccc2C(F)(F)F)ccc1-c1c(C)c(=O)[nH]c(=O)n1C` (single isomer, unassigned) [Tavapadon Form H1, 1,5-dimethyl-6-(2-methyl-4-{[3-(trifluoromethyl)pyridin-2-yl]oxy}phenyl)pyrimidine-2,4(1H,3H)-dione], the “time stable after exposure to different relative humidity conditions at different temperatures” value is reported as “at least 6 months” and the “stability to conditions of relative humidity at elevated temperatures” value was “particularly stable”. In addition, the “XRPD result (crystalline form)” value (0 M (start)) is reported as “Form H1”. The “XRPD analysis after storage” value (25° C., 60% RH) is “No change”. Further, where the note is “25° C./60% RH, 2 M”, the “XRPD result (crystalline form)” value is given as “Form H1”. Further, the “XRPD result (crystalline form)” value (25° C./60% RH, 4 M) was “Form H1”. Moreover, for the setting “25° C./60% RH, 6 M”, the “XRPD result (crystalline form)” value is given as “Form H1”. Besides, the “XRPD result (crystalline form)” value (40° C./75% RH, 2 M) was “Form H1”. Besides, the “XRPD result (crystalline form)” value (40° C./75% RH, 4 M) is listed as “Form H1”. Further, where the note is “40° C./75% RH, 6 M”, the “XRPD result (crystalline form)” value was “Form H1”.
